Data published in the supplement of paper PMC10307832.

What was measured:
Assay in all cases: relative viability (nuclei count vs DMSO), 5 days (fraction); higher = more cells survive
[1] = compound: CC1(C)CNc2cc(NC(=O)c3cccnc3NCc3ccncc3)ccc21 [Motesanib] + COc1cccc2cc(-c3nc([C@H]4CC[C@H](C(=O)O)CC4)n4ncnc(N)c34)[nH]c12 [OSI-027] (partner 0.5 µM)
In short: (§1)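 Lung cancer cell lines were seeded in 1536-well plates and dosed by pin tool the next day, with either a single drug or a fixed anchor-drug dose combined with five library-drug doses (not always all listed) spaced in √10 steps. Five days later, one step fixed the cells and stained their nuclei (final 0.05% Triton X-100, 1% formaldehyde, 1 ug/ml Hoechst), and nuclei were counted on 4× images. Relative viability is the nuclei count in treated wells divided by the count in vehicle wells, and each value is the median of duplicate plates.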

[2] = compound: CC1(C)CNc2cc(NC(=O)c3cccnc3NCc3ccncc3)ccc21 [Motesanib] + CS(=O)(=O)N1CCN(Cc2cc3nc(-c4cccc5[nH]ncc45)nc(N4CCOCC4)c3s2)CC1 [Pictilisib] (partner 1 µM)
In short: as §1

[3] = compound: C[C@@]1(C(=O)Nc2ccc(F)nc2)CCCN1c1nc(Nc2cc(C3CC3)n[nH]2)c2cccn2n1 + CS(=O)(=O)CCNCc1ccc(-c2ccc3ncnc(Nc4ccc(OCc5cccc(F)c5)c(Cl)c4)c3c2)o1 [Lapatinib] (partner 2 µM)
In short: as §1

[4] = compound: C[C@@]1(C(=O)Nc2ccc(F)nc2)CCCN1c1nc(Nc2cc(C3CC3)n[nH]2)c2cccn2n1 + Cc1nc(Nc2ncc(C(=O)Nc3c(C)cccc3Cl)s2)cc(N2CCN(CCO)CC2)n1 [Dasatinib] (partner 0.075 µM)
In short: as §1

Row | Cell Line | relative viability ([1]; first compound 0.01 µM) | relative viability ([1]; first compound 0.03162 µM) | relative viability ([1]; first compound 0.1 µM) | relative viability ([1]; first compound 0.3162 µM) | relative viability ([1]; first compound 1 µM) | relative viability ([2]; first compound 0.01 µM) | relative viability ([2]; first compound 0.03162 µM) | relative viability ([2]; first compound 0.1 µM) | relative viability ([2]; first compound 0.3162 µM) | relative viability ([2]; first compound 1 µM) | relative viability ([3]; first compound 0.04 µM) | relative viability ([3]; first compound 0.1265 µM) | relative viability ([3]; first compound 0.4 µM) | relative viability ([3]; first compound 1.265 µM) | relative viability ([4]; first compound 0.04 µM) | relative viability ([4]; first compound 0.1265 µM) | relative viability ([4]; first compound 0.4 µM) | relative viability ([4]; first compound 1.265 µM)
1 | SK-LU-1 | 0.35 | 0.36 | 0.401 | 0.41 | 0.394 | 0.494 | 0.481 | 0.553 | 0.628 | 0.663 | 0.821 | 0.861 | 0.598 | 0.577 | 0.116 | 0.112 | 0.0979 | 0.0968
2 | NCI-H1975 | 0.66 | 0.702 | 0.747 | 0.677 | 0.669 | 0.312 | 0.282 | 0.313 | 0.352 | 0.31 | 0.844 | 0.88 | 0.601 | 0.594 | 0.263 | 0.306 | 0.181 | 0.154
3 | NCI-H1651 | 0.848 | 0.663 | 0.628 | 0.652 | 0.615 | 0.607 | 0.538 | 0.516 | 0.562 | 0.51 | 0.707 | 0.706 | 0.693 | 0.746 | 0.309 | 0.33 | 0.185 | 0.231
4 | LCLC-97TM1 | 0.519 | 0.56 | 0.465 | 0.58 | 0.537 | 0.224 | 0.204 | 0.15 | 0.235 | 0.18 | 0.572 | 0.301 | 0.172 | 0.163 | 0.54 | 0.224 | 0.229 | 0.134
5 | NCI-H727 | 0.539 | 0.767 | 0.833 | 0.555 | 0.425 | 0.324 | 0.369 | 0.463 | 0.464 | 0.379 | 0.692 | 0.371 | 0.247 | 0.294 | 0.278 | 0.182 | 0.273 | 0.229
6 | NCI-H1355 | 0.411 | 0.424 | 0.39 | 0.414 | 0.431 | 0.47 | 0.475 | 0.406 | 0.502 | 0.485 | 0.908 | 0.831 | 0.711 | 0.654 | 0.545 | 0.488 | 0.434 | 0.421
7 | HOP-62 | 0.843 | 0.912 | 0.839 | 0.92 | 0.815 | 0.651 | 0.843 | 0.507 | 1.08 | 1.01 | 0.978 | 0.907 | 1.05 | 1.04 | 0.662 | 0.565 | 0.469 | 0.374
8 | NCI-H2085 | 0.812 | 0.892 | 0.753 | 0.67 | 0.691 | 0.377 | 0.447 | 0.405 | 0.509 | 0.468 | 0.808 | 0.639 | 0.661 | 0.62 | 0.289 | 0.309 | 0.187 | 0.178
